Reference: paper PMC10610505, “Synthesis and Biological Evaluation of Some New 3-Aryl-2-thioxo-2,3-dihydroquinazolin-4(1H)-ones and 3-Aryl-2-(benzylthio)quinazolin-4(3H)-ones as Antioxidants; COX-2, LDHA, α-Glucosidase and α-Amylase Inhibitors; and Anti-Colon Carcinoma and Apoptosis-Inducing Agents” (Pharmaceuticals, 2023)
Where “and” joins values, the source holds several entries; their conditions need not be identical. Equal values may be shown once.

How the values were obtained:
LoVo carcinoma cells = assay: Cell cycle assay (PI flow cytometry), LoVo; format: cell-based, human; details: 50 µg/mL, 48 h
Procedure: In the current study, the cell cycle distribution of the treated HCT-116 and LoVo carcinoma cells with compounds 3a and 3f was assessed by labeling the cell’s DNA with PI stain in order to determine if the induction of apoptosis in carcinoma cells could be related to the cell cycle arrest (Figure 8A–F). The intensity of the PI stain is proportional to the cell’s DNA content (Figure 9). […] The ability of the tested compounds (3a and 3f) to block the cell cycle progression in LoVo and HCT-116 cells confirmed their anticancer potential against these colon carcinoma cell lines and could explain the mechanism of the observed cytotoxicity.
Changes in cell cycle distribution induced by compounds 3a and 3f were analyzed using a flow cytometric analysis according to Nicoletti et al. 1991 [108] using a Propidium Iodide Flow Cytometry Kit for Cell Cycle Analysis (Abcam-UK). HCT-116 and LoVo carcinoma cells (5 × 10^4 cells/mL) were treated with DMSO as a negative control, and compounds 3a and 3f (50 µg/mL), for 48 h. After the centrifugation of the treated cells at 1800 rpm for 5 min, the pellet was washed twice with PBS. Then, the cells were fixed by mixing […] of 90% cold ethanol, and stained with propidium iodide (PI) for 1 h at 37 °C. […] The stained cells were analyzed for their DNA content using a BD FACSC flow cytometer.

[1] = system: LoVo human colon carcinoma cells; assay: Viability assay (LDH release), LoVo; format: cell-based; details: for viability at 200 µg/mL: 48 h, read-out: Mean % of viable cells ± SD, LoVo; for IC50: from concentration–response curves
In short: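 LoVo human colon carcinoma cells were grown for 24 h at 37 °C in a humidified 5% CO2 incubator in Dulbecco's Modified Eagle's Medium containing 10% FBS, then exposed to test samples for 48 h. Lactate dehydrogenase released into the supernatant was measured by ELISA end-point assay at 550 nm, using 0.1% Triton X-100 as positive control and medium alone as negative control. Viability was reported as mean % ± SD (n = 3) and compared against HUVEC cells.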

Compound | Cells in G2/M phase (%DIP G2/M) (LoVo carcinoma cells) [%] | viability at 200 µg/mL ([1]; Homo sapiens, LoVo) [%] | IC50 ([1]; Homo sapiens, LoVo) | IC50 [1] [µM]
O=c1c2cc(Cl)ccc2[nH]c(=S)n1-c1cccc(C(F)(F)F)c1 [Compound 3a, 6-Chloro-2-thioxo-3-(3-trifluoromethyl-phenyl)-2,3-dihydro-1H-quinazolin-4-one] | 22.64 | 23.5 ± 1.5 | 294 µM and 105 µg/mL | 294
O=c1c2cc(Cl)ccc2[nH]c(=S)n1-c1ccc([N+](=O)[O-])cc1 [Compound 3f, 6-Chloro-3-(4-nitro-phenyl)-2-thioxo-2,3-dihydro-1H-quinazolin-4-one] | 29.16 | 22.7 ± 2.08 | 384 µM and 128 µg/mL | 384
